This experiment has as its system B6C3F1 mice, intracerebral ependymoblastoma, median survival T/C. Briefly: NCI In Vivo Anticancer Drug Screen. Data for tumor model Ependymoblastoma (intracerebral) in B6C3F1 mice. The note with it: endpoint: median survival time, higher = longer survival. On the procedure:
The antitumor activity of compounds was measured in mice bearing transplantable tumors. Survival or tumor size were measured and the results are expressed as the measurement made in the treated group (T) divided by the measurement made in the vehicle treated control group (C). The tumor model used in this assay is Ependymoblastoma (intracerebral) in B6C3F1 mice

[1] abbreviates: dose: 1.0 mg/kg/injection, schedule: Q01DX005 (ip), vehicle: saline with Tween-80.
Setting [2] is: dose: 2.0 mg/kg/injection, schedule: Q01DX005 (ip), vehicle: saline with Tween-80.
The mark [3] stands for this setting: dose: 0.25 mg/kg/injection, schedule: Q01DX005 (ip), vehicle: saline with Tween-80.
[4] abbreviates: dose: 0.5 mg/kg/injection, schedule: Q01DX005 (ip), vehicle: saline with Tween-80.

The structures appear in SMILES notation. “And” between values parts separate entries of the source, which are not always exact repeats. Equal values may be shown once. Inconclusive results and toxic doses are left out.

On to `O=NN(CCCl)C(=O)NCCCl`, for which the T/C is 114 % of control (dose: 0.5 mg/kg/injection, schedule: Q01DX009 (ip), vehicle: saline with Tween-80); 96 % of control and 105 % of control (dose: 1.0 mg/kg/injection, schedule: Q01DX001 (ip), vehicle: saline); 100 % of control and 115 % of control (dose: 1.0 mg/kg/injection, schedule: Q01DX005 (ip), vehicle: saline + alcohol); 99 % of control and 103 % of control under setting [1]; 118 % of control (dose: 1.0 mg/kg/injection, schedule: Q01DX009 (ip), vehicle: saline with Tween-80); 96 % of control and 105 % of control (dose: 2.0 mg/kg/injection, schedule: Q01DX001 (ip), vehicle: saline). The T/C runs as follows: (dose: 2.0 mg/kg/injection, schedule: Q01DX005 (ip), vehicle: saline + alcohol) 103 % of control and 107 % of control and 119 % of control; under setting [2], 93 % of control and 116 % of control; (dose: 2.0 mg/kg/injection, schedule: Q01DX009 (ip), vehicle: saline with Tween-80) 153 % of control; (dose: 2.5 mg/kg/injection, schedule: Q01DX001 (ip), vehicle: saline with Tween-80) 109 % of control; (dose: 4.0 mg/kg/injection, schedule: Q01DX001 (ip), vehicle: saline) 106 % of control and 111 % of control; (dose: 4.0 mg/kg/injection, schedule: Q01DX005 (ip), vehicle: saline + alcohol) 170 % of control. Further, the T/C was 241 % of control (dose: 4.0 mg/kg/injection, schedule: Q01DX009 (ip), vehicle: saline with Tween-80); 113 % of control (dose: 5.0 mg/kg/injection, schedule: Q01DX001 (ip), vehicle: alcohol); 113 % of control (dose: 5.0 mg/kg/injection, schedule: Q01DX001 (ip), vehicle: saline with Tween-80); 107 % of control (dose: 7.5 mg/kg/injection, schedule: Q01DX001 (ip), vehicle: saline + alcohol); 108 % of control and 110 % of control (dose: 8.0 mg/kg/injection, schedule: Q01DX001 (ip), vehicle: saline); 204 % of control and 218 % of control (dose: 8.0 mg/kg/injection, schedule: Q01DX005 (ip), vehicle: saline + alcohol). For the same compound, the T/C runs as follows: (dose: 8.0 mg/kg/injection, schedule: Q01DX005 (ip), vehicle: saline with Tween-80) 171 % of control and 240 % of control; (dose: 8.0 mg/kg/injection, schedule: Q01DX009 (ip), vehicle: saline with Tween-80) 106 % of control; (dose: 10.0 mg/kg/injection, schedule: Q01DX001 (ip), vehicle: saline with Tween-80) 99 % of control; (dose: 10.0 mg/kg/injection, schedule: Q01DX005 (ip), vehicle: saline with Tween-80) 214 % of control; (dose: 16.0 mg/kg/injection, schedule: Q01DX001 (ip), vehicle: saline) 150 % of control and 163 % of control; (dose: 16.0 mg/kg/injection, schedule: Q01DX005 (ip), vehicle: saline + alcohol) 376 % of control. The T/C is 105 % of control (dose: 16.0 mg/kg/injection, schedule: Q01DX005 (ip), vehicle: saline with Tween-80); 167 % of control (dose: 20.0 mg/kg/injection, schedule: Q01DX001 (ip), vehicle: alcohol); 117 % of control (dose: 20.0 mg/kg/injection, schedule: Q01DX001 (ip), vehicle: saline with Tween-80); 300 % of control (dose: 24.0 mg/kg/injection, schedule: Q01DX001 (ip), vehicle: saline); 177 % of control (dose: 30.0 mg/kg/injection, schedule: Q01DX001 (ip), vehicle: saline + alcohol); 196 % of control and 226 % of control (dose: 32.0 mg/kg/injection, schedule: Q01DX001 (ip), vehicle: saline). Besides, the T/C was 215 % of control (dose: 40.0 mg/kg/injection, schedule: Q01DX001 (ip), vehicle: alcohol); 112 % of control (dose: 40.0 mg/kg/injection, schedule: Q01DX001 (ip), vehicle: saline with Tween-80); 359 % of control (dose: 60.0 mg/kg/injection, schedule: Q01DX001 (ip), vehicle: saline + alcohol); 95 % of control (dose: 64.0 mg/kg/injection, schedule: Q01DX001 (ip), vehicle: saline).
In the case of `O=P1(N(CCCl)CCCl)NCCCO1` (stereo not given), the T/C is, setting by setting: (dose: 40.0 mg/kg/injection, schedule: Q01DX001 (ip), vehicle: saline) 109 % of control; (dose: 320.0 mg/kg/injection, schedule: Q01DX001 (ip), vehicle: saline) 163 % of control.
For `O=NN(CCF)C(=O)NCCO`, the T/C was 189 % of control (dose: 5.18 mg/kg/injection, schedule: Q01DX005 (ip), vehicle: Klucel (hydroxypropylcellulose) (HPC)); 357 % of control (dose: 8.64 mg/kg/injection, schedule: Q01DX005 (ip), vehicle: Klucel (hydroxypropylcellulose) (HPC)); 115 % of control (dose: 13.0 mg/kg/injection, schedule: Q01DX001 (ip), vehicle: saline); 357 % of control (dose: 14.4 mg/kg/injection, schedule: Q01DX005 (ip), vehicle: Klucel (hydroxypropylcellulose) (HPC)); 181 % of control (dose: 21.6 mg/kg/injection, schedule: Q01DX001 (ip), vehicle: saline); 357 % of control (dose: 24.0 mg/kg/injection, schedule: Q01DX005 (ip), vehicle: Klucel (hydroxypropylcellulose) (HPC)). Moreover, the T/C (dose: 36.0 mg/kg/injection, schedule: Q01DX001 (ip), vehicle: saline) was 363 % of control and the T/C (dose: 60.0 mg/kg/injection, schedule: Q01DX001 (ip), vehicle: saline) is 363 % of control.
`CCCCCN(C)/N=N/c1nc[nH]c1C(N)=O`: the T/C by setting is: (dose: 64.0 mg/kg/injection, schedule: Q01DX005 (ip), vehicle: saline with Tween-80) 153 % of control; (dose: 128.0 mg/kg/injection, schedule: Q01DX005 (ip), vehicle: saline with Tween-80) 160 % of control.
Turning to `C/C(=C\c1ccccc1)[N+](=O)[O-]`, the T/C by setting is: (dose: 3.12 mg/kg/injection, schedule: Q01DX005 (ip), vehicle: Klucel (hydroxypropylcellulose) (HPC)) 96 % of control; (dose: 6.25 mg/kg/injection, schedule: Q01DX005 (ip), vehicle: Klucel (hydroxypropylcellulose) (HPC)) 100 % of control; (dose: 12.5 mg/kg/injection, schedule: Q01DX005 (ip), vehicle: Klucel (hydroxypropylcellulose) (HPC)) 92 % of control; (dose: 25.0 mg/kg/injection, schedule: Q01DX005 (ip), vehicle: Klucel (hydroxypropylcellulose) (HPC)) 92 % of control; (dose: 50.0 mg/kg/injection, schedule: Q01DX005 (ip), vehicle: Klucel (hydroxypropylcellulose) (HPC)) 91 % of control; (dose: 100.0 mg/kg/injection, schedule: Q01DX005 (ip), vehicle: Klucel (hydroxypropylcellulose) (HPC)) 91 % of control.
Take `Cc1c[nH]c(=O)[nH]c1=O`: the T/C was 104 % of control (dose: 64.0 mg/kg/injection, schedule: Q01DX005 (ip), vehicle: Klucel (hydroxypropylcellulose) (HPC)); 92 % of control (dose: 128.0 mg/kg/injection, schedule: Q01DX005 (ip), vehicle: Klucel (hydroxypropylcellulose) (HPC)); 99 % of control (dose: 256.0 mg/kg/injection, schedule: Q01DX005 (ip), vehicle: Klucel (hydroxypropylcellulose) (HPC)); 95 % of control (dose: 512.0 mg/kg/injection, schedule: Q01DX005 (ip), vehicle: Klucel (hydroxypropylcellulose) (HPC)); 95 % of control (dose: 1024.0 mg/kg/injection, schedule: Q01DX005 (ip), vehicle: Klucel (hydroxypropylcellulose) (HPC)).
With `COc1ccc(CC2C(=O)NC(C)C(=O)N(C)C3C(=O)N(C)C(Cc4ccc(O)c(c4)Oc4ccc(cc4)C3O)C(=O)NC(C)C(=O)NC(C)C(=O)N2C)cc1` (stereo not given), the T/C was 103 % of control (dose: 0.25 mg/kg/injection, schedule: Q01DX005 (ip), vehicle: Klucel (hydroxypropylcellulose) (HPC)); 105 % of control under setting [3]; 107 % of control (dose: 0.5 mg/kg/injection, schedule: Q01DX005 (ip), vehicle: Klucel (hydroxypropylcellulose) (HPC)); 114 % of control under setting [4]; 106 % of control (dose: 1.0 mg/kg/injection, schedule: Q01DX005 (ip), vehicle: Klucel (hydroxypropylcellulose) (HPC)); 113 % of control under setting [1]. The T/C runs as follows: (dose: 2.0 mg/kg/injection, schedule: Q01DX005 (ip), vehicle: Klucel (hydroxypropylcellulose) (HPC)) 96 % of control; under setting [2], 114 % of control; (dose: 4.0 mg/kg/injection, schedule: Q01DX005 (ip), vehicle: saline with Tween-80) 97 % of control.
Take `O=C1c2c(O)ccc(O)c2C(=O)c2c(NCCNCCO)ccc(NCCNCCO)c21`: the T/C under setting [3] was 103 % of control; the T/C under setting [4] is 92 % of control and 98 % of control; the T/C under setting [1] is 103 % of control and 104 % of control; the T/C under setting [2] was 91 % of control and 103 % of control.

For the origin of these results see PubChem BioAssay AID226 (DTP/NCI, 2004).
